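1) Cells in 96-well plates. 2) Compound, 48 h, 5 concentrations. 3) Linear interpolation between surrounding doses. 4) Unreached endpoint = highest concentration. TGI marks complete inhibition of growth.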
Experiments:
Experiment in all cases: NCI tumour cell line growth inhibition, 48 h
786-0 renal = test system: 786-0 renal
A498 renal = test system: A498 renal
A549 NSCLC = test system: A549 NSCLC
ACHN renal = test system: ACHN renal
BT-549 breast = test system: BT-549 breast
CAKI-1 renal = test system: CAKI-1 renal
COLO 205 colon = test system: COLO 205 colon
DU-145 prostate = test system: DU-145 prostate
EKVX NSCLC = test system: EKVX NSCLC
HCT-116 colon = test system: HCT-116 colon
HCT-15 colon = test system: HCT-15 colon
HL-60(TB) leukemia = test system: HL-60(TB) leukemia
HOP-62 NSCLC = test system: HOP-62 NSCLC
HOP-92 NSCLC = test system: HOP-92 NSCLC
HS 578T breast = test system: HS 578T breast
HT29 colon = test system: HT29 colon
IGROV1 ovarian = test system: IGROV1 ovarian
K-562 leukemia = test system: K-562 leukemia
KM12 colon = test system: KM12 colon
LOX IMVI melanoma = test system: LOX IMVI melanoma
M14 melanoma = test system: M14 melanoma
MALME-3M melanoma = test system: MALME-3M melanoma
MCF7 breast = test system: MCF7 breast
MDA-MB-231 breast = test system: MDA-MB-231 breast
MDA-MB-435 = test system: MDA-MB-435
MDA-N = test system: MDA-N
MOLT-4 leukemia = test system: MOLT-4 leukemia
NCI-H226 lung = test system: NCI-H226 lung
NCI-H23 lung = test system: NCI-H23 lung
NCI-H522 lung = test system: NCI-H522 lung
NCI/ADR-RES ovarian = test system: NCI/ADR-RES ovarian
OVCAR-3 ovarian = test system: OVCAR-3 ovarian
OVCAR-4 ovarian = test system: OVCAR-4 ovarian
OVCAR-5 ovarian = test system: OVCAR-5 ovarian
OVCAR-8 ovarian = test system: OVCAR-8 ovarian
PC-3 prostate = test system: PC-3 prostate
RPMI-8226 leukemia = test system: RPMI-8226 leukemia
RXF 393 renal = test system: RXF 393 renal
SF-268 CNS = test system: SF-268 CNS
SF-295 CNS = test system: SF-295 CNS
SF-539 CNS = test system: SF-539 CNS
SK-MEL-2 melanoma = test system: SK-MEL-2 melanoma
SK-MEL-28 melanoma = test system: SK-MEL-28 melanoma
SK-MEL-5 melanoma = test system: SK-MEL-5 melanoma
SK-OV-3 ovarian = test system: SK-OV-3 ovarian
SN12C renal = test system: SN12C renal
SNB-19 CNS = test system: SNB-19 CNS
SR leukemia = test system: SR leukemia
SW-620 colon = test system: SW-620 colon
T-47D breast = test system: T-47D breast
TK-10 renal = test system: TK-10 renal
U251 CNS = test system: U251 CNS
UACC-257 melanoma = test system: UACC-257 melanoma
UACC-62 melanoma = test system: UACC-62 melanoma
UO-31 renal = test system: UO-31 renal
CCRF-CEM leukemia = test system: CCRF-CEM leukemia
HCC-2998 colon = test system: HCC-2998 colon
SNB-75 CNS = test system: SNB-75 CNS
NCI-H460 lung = test system: NCI-H460 lung

CCOC(=O)C12C(=O)CCN1CCc1ccccc1C2C (stereo not given)
TGI (786-0 renal): > 100 µM | TGI (A498 renal): > 100 µM | TGI (A549 NSCLC): > 100 µM | TGI (ACHN renal): > 100 µM | TGI (BT-549 breast): > 100 µM | TGI (CAKI-1 renal): > 100 µM | TGI (COLO 205 colon): > 100 µM | TGI (DU-145 prostate): > 100 µM | TGI (EKVX NSCLC): > 100 µM | TGI (HCT-116 colon): > 100 µM | TGI (HCT-15 colon): > 100 µM | TGI (HL-60(TB) leukemia): > 100 µM | TGI (HOP-62 NSCLC): > 100 µM | TGI (HOP-92 NSCLC): > 100 µM | TGI (HS 578T breast): > 100 µM | TGI (HT29 colon): > 100 µM | TGI (IGROV1 ovarian): > 100 µM | TGI (K-562 leukemia): > 100 µM | TGI (KM12 colon): > 100 µM | TGI (LOX IMVI melanoma): > 100 µM | TGI (M14 melanoma): > 100 µM | TGI (MALME-3M melanoma): > 100 µM | TGI (MCF7 breast): > 100 µM | TGI (MDA-MB-231 breast): > 100 µM | TGI (MDA-MB-435): > 100 µM | TGI (MDA-N): > 100 µM | TGI (MOLT-4 leukemia): > 100 µM | TGI (NCI-H226 lung): > 100 µM | TGI (NCI-H23 lung): > 100 µM | TGI (NCI-H522 lung): > 100 µM | TGI (NCI/ADR-RES ovarian): > 100 µM | TGI (OVCAR-3 ovarian): > 100 µM | TGI (OVCAR-4 ovarian): > 100 µM | TGI (OVCAR-5 ovarian): > 100 µM | TGI (OVCAR-8 ovarian): > 100 µM | TGI (PC-3 prostate): > 100 µM | TGI (RPMI-8226 leukemia): > 100 µM | TGI (RXF 393 renal): > 100 µM | TGI (SF-268 CNS): > 100 µM | TGI (SF-295 CNS): > 100 µM | TGI (SF-539 CNS): > 100 µM | TGI (SK-MEL-2 melanoma): > 100 µM | TGI (SK-MEL-28 melanoma): > 100 µM | TGI (SK-MEL-5 melanoma): > 100 µM | TGI (SK-OV-3 ovarian): > 100 µM | TGI (SN12C renal): > 100 µM | TGI (SNB-19 CNS): > 100 µM | TGI (SR leukemia): > 100 µM | TGI (SW-620 colon): > 100 µM | TGI (T-47D breast): > 100 µM | TGI (TK-10 renal): > 100 µM | TGI (U251 CNS): > 100 µM | TGI (UACC-257 melanoma): > 100 µM | TGI (UACC-62 melanoma): > 100 µM | TGI (UO-31 renal): > 100 µM

CC(C)CC(=O)CC(O)C(Cl)(Cl)Cl (stereo not given)
TGI (786-0 renal): > 100 µM | TGI (A498 renal): > 100 µM | TGI (A549 NSCLC): > 100 µM | TGI (ACHN renal): > 100 µM | TGI (BT-549 breast): > 100 µM | TGI (CAKI-1 renal): > 100 µM | TGI (CCRF-CEM leukemia): > 100 µM | TGI (COLO 205 colon): > 100 µM | TGI (DU-145 prostate): > 100 µM | TGI (EKVX NSCLC): > 100 µM | TGI (HCC-2998 colon): > 100 µM | TGI (HCT-116 colon): > 100 µM | TGI (HCT-15 colon): > 100 µM | TGI (HOP-62 NSCLC): > 100 µM | TGI (HS 578T breast): > 100 µM | TGI (HT29 colon): > 100 µM | TGI (IGROV1 ovarian): > 100 µM | TGI (K-562 leukemia): > 100 µM | TGI (KM12 colon): > 100 µM | TGI (LOX IMVI melanoma): > 100 µM | TGI (M14 melanoma): > 100 µM | TGI (MALME-3M melanoma): > 100 µM | TGI (MCF7 breast): > 100 µM | TGI (MDA-MB-231 breast): > 100 µM | TGI (MDA-MB-435): > 100 µM | TGI (MDA-N): > 100 µM | TGI (MOLT-4 leukemia): > 100 µM | TGI (NCI-H226 lung): > 100 µM | TGI (NCI-H23 lung): > 100 µM | TGI (NCI-H522 lung): > 100 µM | TGI (NCI/ADR-RES ovarian): > 100 µM | TGI (OVCAR-3 ovarian): > 100 µM | TGI (OVCAR-4 ovarian): > 100 µM | TGI (OVCAR-5 ovarian): > 100 µM | TGI (OVCAR-8 ovarian): > 100 µM | TGI (PC-3 prostate): > 100 µM | TGI (RPMI-8226 leukemia): > 100 µM | TGI (RXF 393 renal): > 100 µM | TGI (SF-295 CNS): > 100 µM | TGI (SK-MEL-2 melanoma): > 100 µM | TGI (SK-MEL-28 melanoma): > 100 µM | TGI (SK-MEL-5 melanoma): > 100 µM | TGI (SK-OV-3 ovarian): > 100 µM | TGI (SN12C renal): > 100 µM | TGI (SNB-19 CNS): > 100 µM | TGI (SNB-75 CNS): > 100 µM | TGI (SR leukemia): > 100 µM | TGI (SW-620 colon): > 100 µM | TGI (T-47D breast): > 100 µM | TGI (TK-10 renal): > 100 µM | TGI (U251 CNS): > 100 µM | TGI (UACC-257 melanoma): > 100 µM | TGI (UACC-62 melanoma): > 100 µM | TGI (UO-31 renal): > 100 µM

CC(C)(C)OC(=O)N1C/C=C\C(=O)C2(OCCO2)c2ccccc21
TGI (786-0 renal): 56.9 µM | TGI (A498 renal): > 100 µM | TGI (A549 NSCLC): > 100 µM | TGI (ACHN renal): > 100 µM | TGI (BT-549 breast): 51.4 µM | TGI (CAKI-1 renal): > 100 µM | TGI (CCRF-CEM leukemia): 57 µM | TGI (COLO 205 colon): 35.7 µM | TGI (DU-145 prostate): 81.8 µM | TGI (EKVX NSCLC): > 100 µM | TGI (HCT-116 colon): 34.9 µM | TGI (HCT-15 colon): > 100 µM | TGI (HOP-62 NSCLC): > 100 µM | TGI (HOP-92 NSCLC): 44.2 µM | TGI (HS 578T breast): > 100 µM | TGI (HT29 colon): 42 µM | TGI (IGROV1 ovarian): 33.4 µM | TGI (K-562 leukemia): 57.1 µM | TGI (KM12 colon): > 100 µM | TGI (LOX IMVI melanoma): 32.6 µM | TGI (M14 melanoma): 65.1 µM | TGI (MALME-3M melanoma): 48.1 µM | TGI (MCF7 breast): 96.2 µM | TGI (MDA-MB-231 breast): 40.8 µM | TGI (MDA-MB-435): 34 µM | TGI (MDA-N): 48.3 µM | TGI (MOLT-4 leukemia): 76.5 µM | TGI (NCI-H226 lung): 38.9 µM | TGI (NCI-H23 lung): > 100 µM | TGI (NCI-H460 lung): 50.5 µM | TGI (NCI-H522 lung): 78.8 µM | TGI (NCI/ADR-RES ovarian): > 100 µM | TGI (OVCAR-3 ovarian): 29.6 µM | TGI (OVCAR-4 ovarian): > 100 µM | TGI (OVCAR-5 ovarian): > 100 µM | TGI (OVCAR-8 ovarian): 86.6 µM | TGI (PC-3 prostate): > 100 µM | TGI (RPMI-8226 leukemia): 54.1 µM | TGI (RXF 393 renal): 37.8 µM | TGI (SF-268 CNS): > 100 µM | TGI (SF-295 CNS): 73.9 µM | TGI (SF-539 CNS): 50.3 µM | TGI (SK-MEL-2 melanoma): 68.5 µM | TGI (SK-MEL-28 melanoma): 49.5 µM | TGI (SK-MEL-5 melanoma): 31.7 µM | TGI (SK-OV-3 ovarian): 99.2 µM | TGI (SN12C renal): 88.9 µM | TGI (SNB-19 CNS): > 100 µM | TGI (SNB-75 CNS): 99.2 µM | TGI (SR leukemia): 77.9 µM | TGI (SW-620 colon): 58.7 µM | TGI (T-47D breast): 49.5 µM | TGI (TK-10 renal): 47.3 µM | TGI (U251 CNS): > 100 µM | TGI (UACC-257 melanoma): 39.3 µM | TGI (UO-31 renal): 43.1 µM

From PubChem BioAssay (NCI)
